According to patent US8685999B2, “Beta carboline sulphonylurea derivatives as EP4 receptor antagonists” (Merck Sharp & Dohme Corp., priority 2008, dated 2014):

Molecular target: T1, EP4 (Homo sapiens, UniProt P35408)
T1 construct: expressed in transfected cells; membranes prepared by differential centrifugation
Assay: Prostanoid receptor binding assay (radioligand displacement binding assay)
Conditions: column marked X when IC50 < 1; read-out: IC50 (nm) X < 1
Experimental: Prostanoid receptor cDNAs corresponding to full length coding sequences are subcloned into the appropriate sites of mammalian expression vectors and transfected into HEK 293(ebna) cells. HEK 293(ebna) cells expressing the individual cDNAs are grown under selection and individual colonies are isolated after 2-3 weeks of growth using the cloning ring method and subsequently expanded into clonal cell lines.
Transfected HEK 293(ebna) cells are maintained in culture, harvested and membranes are prepared by differential centrifugation, following lysis of the cells in the presence of protease inhibitors, for use in receptor binding assays. Prostanoid receptor binding assays (for DP1, DP2 (CRTH2), EP1, EP2, EP3-III, EP4, FP, IP, and TP) are performed in 10 mM MES/KOH (pH 6.0) (EPs, FP and TP) or 10 mM HEPES/KOH (pH 7.4) (DPs and IP), containing 1 mM EDTA, 2.5-30 mM divalent cation and the appropriate radio-ligand. Synthetic compounds are added in DMSO which is kept constant at 1% (v/v) in all incubations. The reaction is initiated by addition of membrane protein. Non-specific binding is determined in the presence of 10 μM of the corresponding non-radioactive prostanoid. Incubations are conducted for 60-120 min at room temperature or 30° C. and terminated by rapid filtration. Specific binding is calculated by subtracting non specific binding from total binding. The residual specific binding at each ligand concentration is calculated and expressed as a function of ligand concentration in order to construct sigmoidal concentration-response curves. The binding affinity of the compounds is determined by calculating the equilibrium inhibition constant (Ki) from the equation Ki=InPt/1+[radio-ligand]/Kd where Kd is the equilibrium dissociation constant for the radio-ligand:receptor interaction and InPt is the inflection point of the dose-response curves.
Abramovitz, M. et al., Biochem, Biophys. Acta, 2000, 1483, pp. 285.

T1 sequence (P35408 whole entry): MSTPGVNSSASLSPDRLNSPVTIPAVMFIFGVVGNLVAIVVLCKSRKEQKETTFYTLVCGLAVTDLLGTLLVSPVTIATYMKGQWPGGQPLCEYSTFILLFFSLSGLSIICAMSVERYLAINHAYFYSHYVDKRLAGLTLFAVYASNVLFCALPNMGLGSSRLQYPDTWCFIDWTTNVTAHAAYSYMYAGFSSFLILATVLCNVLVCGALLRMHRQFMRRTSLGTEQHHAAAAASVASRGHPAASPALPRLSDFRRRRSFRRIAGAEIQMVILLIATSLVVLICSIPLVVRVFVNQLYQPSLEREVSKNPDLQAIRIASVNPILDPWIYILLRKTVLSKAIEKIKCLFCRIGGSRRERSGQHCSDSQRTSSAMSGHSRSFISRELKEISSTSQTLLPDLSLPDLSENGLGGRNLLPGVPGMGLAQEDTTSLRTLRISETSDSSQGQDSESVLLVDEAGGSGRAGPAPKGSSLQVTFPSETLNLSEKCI

IC50: < 1 nM
Structure (SMILES): COc1cccc(OC)c1S(=O)(=O)NC(=O)NC1(Cc2ccc(-n3c4c(c5cc(-c6ccccc6)ccc53)CCN(C)C4=O)cc2)CC1 [Example 1-30, 2,6-dimethoxy-N-[({1-[4-(2-methyl-1-oxo-6-phenyl-1,2,3,4-tetrahydro-9H-beta-carbolin-9-yl)benzyl]cyclopropyl}amino)carbonyl]benzenesulfonamide]
